pIC50: −log10 of the molar value. Like-named read-outs stand apart in the source and are kept apart here.
Assays:
[1] = test system: Lewis lung carcinoma (LLC) lung metastasis; test: Lewis lung carcinoma lung metastasis model; type: in vivo, C57 black mice; parameters: Inhibitory activity in vivo, LLC tumor model (as % of total inhibition): reference not given here; details: for Inhibitory activity in vivo, LLC tumor model (as % of total inhibition): 25 μg/gram, LLC murine tumor model, lung metastasis
Procedure: (vii) Lewis lung carcinoma tumor assay. Murine Lewis lung carcinoma (LLC) D122 cells (1×10^6 cells/[…] PBS) were injected into the foot pads of 10-week old C57 black mice (O'Reilly et al, 1994). Twenty five μg/g of body mass of porphyrin or corrole compound dissolved in PBS were injected IP twice a week to the treated group, and tumor size was measured periodically in order to follow primary tumor formation. In order to evaluate inhibition of lung metastasis by porphyrin or corrole compound, the primary tumors were allowed to develop over a period of six weeks to a volume of approximately 8 mm^3; after which the tumors were removed and metastases were allowed to develop for four weeks. During this time the treated group received 25 μg/g of body mass of porphyrin or corrole compound IP twice a week. Subsequently the mice were sacrificed, dissected and the lungs removed and photographed. The extent of lung metastasis was measured by weighing the lungs.
After establishing the capacity of P1 to inhibit primary tumor growth, the capacity of P1 to inhibit lung metastasis formation was measured as described in Methods, section (vi). Mice were injected with LLC cells (200,000 cells per mouse) into the foot pad and primary tumors were allowed to develop over a period of 3 to 4 weeks to a volume of approximately 8 mm^3. Subsequently, primary tumors were removed through amputation and lung metasases were allowed to develop for four weeks before the mice were sacrificed. The extent of lung metastasis at this point was examined by gross morphological examination and by determining the gain in lung weight. […] In order to quantitate the results from these experiments, the lungs from all mice were weighed and evaluated for the extent of metastatic growth.

[2] = biological target: T1, FGFR-1 alkaline phosphatase fusion protein (FRAP) (Mus musculus, UniProt P16092); test: Binding of soluble FGFR-1 alkaline phosphatase fusion protein (FRAP) to bFGF immobilized on heparin (Screen AP assay); details: binding of FGF to FGFR; Methods section (ii); read-out: Screen AP assay (IC50)
T1 construct: soluble FGFR-1 ectodomain alkaline phosphatase fusion protein (FRAP); made in house; host or cells: NIH 3T3 cells (conditioned medium)
T1 sequence (P16092 22-376 limits assumed): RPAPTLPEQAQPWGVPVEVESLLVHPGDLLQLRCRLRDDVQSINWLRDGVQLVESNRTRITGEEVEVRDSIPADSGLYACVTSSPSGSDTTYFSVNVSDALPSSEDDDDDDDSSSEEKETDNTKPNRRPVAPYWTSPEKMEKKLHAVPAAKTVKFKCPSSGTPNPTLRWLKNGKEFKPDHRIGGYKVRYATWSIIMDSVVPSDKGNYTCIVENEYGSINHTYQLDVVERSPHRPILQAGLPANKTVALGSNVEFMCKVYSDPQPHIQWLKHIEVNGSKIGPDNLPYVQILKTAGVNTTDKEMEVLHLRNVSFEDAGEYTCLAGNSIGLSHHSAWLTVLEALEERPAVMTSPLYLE
Procedure: (ii) Binding of soluble FGFR-1 alkaline phosphatase fusion protein (FRAP) to immobilized bFGF. […] The end-point of the assay measured enzymatically the formation of FGF-receptor complexes quantitated by the specifically associated alkaline phosphatase (AP) catalyzed chromogenic product.
Subsequently, 200 μl of FRAP condition medium and porphyrin/corrole compound were added and incubated together for 2 h.
In order to identify inhibitors of FGF-FGFR interactions, an assay for testing FGFR-ligand binding was developed. The system is composed of bFGF bound to a heparin matrix to which soluble FGFR-1 ectodomain alkaline phosphatase fusion protein (FRAP) and the screened compounds are added (see Methods, section (ii)).

FGFR-1 = FGFR-1 (Mus musculus, UniProt P16092); test: Binding of 125I-bFGF to CHO cells expressing FGFR-1
Procedure: The binding medium was discarded and the cells were washed once with ice-cold DMEM/BSA and twice with cold PBS (pH 7.5) containing 1.6M NaCl. […] Non-specific binding was determined in the presence of a 100-fold excess of unlabeled bFGF.
First we utilized a cell-free system, measuring the binding of radiolabeled bFGF to a dimeric soluble FGFR-1 fused to alkaline phosphatase. The soluble FRAP was immobilized using an anti-alkaline phosphatase antibody prebound to agarose-protein A beads (see Methods, section (iii)). As a: second experimental model, we used CHO cells deficient in heparan sulfate and genetically engineered to express FGFR-1 (Methods, section (iv)).

soluble FGFR-1 (FRAP) = biological target: T2, soluble FGFR-1 (FRAP) (Mus musculus, UniProt P16092); test: Binding of 125I-bFGF to immobilized soluble FGFR-1 (FRAP), cell-free
T2 sequence (P16092 22-376 limits assumed): T1 sequence (P16092 22-376 limits assumed)
Text: First we utilized a cell-free system, measuring the binding of radiolabeled bFGF to a dimeric soluble FGFR-1 fused to alkaline phosphatase. […] As a: second experimental model, we used CHO cells deficient in heparan sulfate and genetically engineered to express FGFR-1 (Methods, section (iv)).

[3] = read-out: Cellular receptor binding (IC50), binding of FGF to FGFR, Methods section (iv)

Chain of FGFR-1 (P16092 22-822): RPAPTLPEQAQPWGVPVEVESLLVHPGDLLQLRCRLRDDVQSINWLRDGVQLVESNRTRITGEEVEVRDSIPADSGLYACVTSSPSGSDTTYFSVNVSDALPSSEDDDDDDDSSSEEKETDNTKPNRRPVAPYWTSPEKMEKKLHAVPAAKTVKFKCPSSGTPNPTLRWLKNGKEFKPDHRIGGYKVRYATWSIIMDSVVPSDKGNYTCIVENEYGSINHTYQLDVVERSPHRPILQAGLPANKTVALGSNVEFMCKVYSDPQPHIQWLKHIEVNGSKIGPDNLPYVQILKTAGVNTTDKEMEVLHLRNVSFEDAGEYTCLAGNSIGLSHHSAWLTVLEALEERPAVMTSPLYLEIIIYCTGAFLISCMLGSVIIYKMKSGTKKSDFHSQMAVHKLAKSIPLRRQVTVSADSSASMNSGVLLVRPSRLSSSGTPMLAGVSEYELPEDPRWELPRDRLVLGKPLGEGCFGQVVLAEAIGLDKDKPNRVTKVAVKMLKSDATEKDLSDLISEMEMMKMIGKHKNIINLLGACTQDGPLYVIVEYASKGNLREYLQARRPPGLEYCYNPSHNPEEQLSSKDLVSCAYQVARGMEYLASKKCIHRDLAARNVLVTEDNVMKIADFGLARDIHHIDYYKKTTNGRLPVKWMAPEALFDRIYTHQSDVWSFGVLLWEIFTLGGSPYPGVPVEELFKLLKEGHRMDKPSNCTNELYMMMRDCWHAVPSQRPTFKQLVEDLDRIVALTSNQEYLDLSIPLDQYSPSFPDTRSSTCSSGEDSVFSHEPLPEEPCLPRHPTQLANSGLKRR

Row | Compound | Inhibitory activity in vivo, LLC tumor model (as % of total inhibition) [1] | pIC50 [2] | pIC50 (FGFR-1) | pIC50 (soluble FGFR-1 (FRAP)) | other results
1 | C[n+]1ccccc1-c1c2nc(c(-c3cccc[n+]3C)c3ccc([nH]3)c(-c3cccc[n+]3C)c3nc(c(-c4cccc[n+]4C)c4ccc1[nH]4)C=C3)C=C2 (single isomer, unassigned) [Compound P7, 5,10,15,20-Tetrakis-(N-methyl-2-pyridylium)-21H,23H-porphine tetraiodide] | 90% |  |  |  | 
2 | COc1ccc(-c2c3nc(c(-c4ccc(OC)cc4)c4ccc([nH]4)c(-c4ccc(OC)cc4)c4nc(c(-c5ccc(OC)cc5)c5ccc2[nH]5)C=C4)C=C3)cc1 [Compound P3, 5,10,15,20-Tetrakis(4-methoxyphenyl)-21H,23H-porphine] |  | < 5.00 |  |  | 
3 | O=C(O)c1ccc(-c2c3nc(c(-c4ccc(C(=O)O)cc4)c4ccc([nH]4)c(-c4ccc(C(=O)O)cc4)c4nc(c(-c5ccc(C(=O)O)cc5)c5ccc2[nH]5)C=C4)C=C3)cc1 [Compound P11, 5,10,15,20-Tetrakis(4-carboxylatophenyl) 21H,23H-porphine tetraammonium] |  | 6.30 | < 5.00 |  | 
4 | C[n+]1cccc(-c2c3nc(c(-c4ccc[n+](C)c4)c4ccc([nH]4)c(-c4ccc[n+](C)c4)c4nc(c(-c5ccc[n+](C)c5)c5ccc2[nH]5)C=C4)C=C3)c1.Cc1ccc(S(=O)(=O)[O-])cc1.Cc1ccc(S(=O)(=O)[O-])cc1.Cc1ccc(S(=O)(=O)[O-])cc1.Cc1ccc(S(=O)(=O)[O-])cc1 [Compound P12, 5,10,15,20-Tetrakis(N-methyl-3-pyridylium)-21H,23H-porphine tetra-p-tosylate] | 0% |  |  |  | pIC50 (FGFR-1; [3]): < 5.00; pIC50 (soluble FGFR-1 (FRAP); read-out: Soluble receptor binding (IC50), binding of FGF to FGFR, Methods section (iii)): 5.00
5 | C[n+]1cccc(-c2c3nc(c(-c4ccc[n+](C)c4)c4ccc([nH]4)c(-c4ccc[n+](C)c4)c4nc(c(-c5ccc[n+](C)c5)c5ccc2[nH]5)C=C4)C=C3)c1 [Compound P13, 5,10,15,20-Tetrakis(N-methyl-3-pyridylium)-21H,23H-porphine tetraiodide] |  |  | < 5.00 | < 5.00 | 
6 | C[n+]1ccc(-c2c3nc(c(-c4c(F)c(F)c(F)c(F)c4F)c4ccc([nH]4)c(-c4cc[n+](C)cc4)c4nc(c(-c5c(F)c(F)c(F)c(F)c5F)c5ccc2[nH]5)C=C4)C=C3)cc1 [Compound P17, 5,15-Bis(pentafluorophenyl)-10,20-bis(N-methyl-4-pyridylium)-21H,23H-porphine diiodide] | 40% |  | 7.52 | 7.70 | 
7 | C[n+]1ccc(-c2c3nc(c(-c4cc[n+](C)cc4)c4ccc([nH]4)c(-c4c(F)c(F)c(F)c(F)c4F)c4nc(c(-c5c(F)c(F)c(F)c(F)c5F)c5ccc2[nH]5)C=C4)C=C3)cc1 [Compound P18, 5,10-Bis(pentafluorophenyl)-15,20-bis(N-methyl-4-pyridylium)-21H,23H-porphine diiodide] | 50% |  | 7.00 | 7.12 | 
8 | C[n+]1ccc(-c2c3nc(c(-c4cc[n+](C)cc4)c4ccc([nH]4)c(-c4c(F)c(F)c(NCCCN)c(F)c4F)c4nc(c(-c5cc[n+](C)cc5)c5ccc2[nH]5)C=C4)C=C3)cc1 [Compound P19] |  | 7.00 |  |  | pIC50 (FGFR-1; [3]): 5.70
9 | C[n+]1ccccc1-c1c(F)c(F)c(-c2c3nc(c(-c4c(F)c(F)c(-c5cccc[n+]5C)c(F)c4F)c4ccc([nH]4)c4ccc([nH]4)c(-c4c(F)c(F)c(-c5cccc[n+]5C)c(F)c4F)c4ccc2[nH]4)C=C3)c(F)c1F [Compound P21, 5,10,15-Tris[2,3,5,6-tetrafluorophenyl-4-(N-methyl-2-pyridylium)]-21H,23H-corrole triiodide] | 200% |  |  |  | Inhibition of lung metastasis in LLC model, in words ([1]; 25 μg/g of body mass IP): highly active in vivo; Concentration inhibiting lung metastasis formation in vivo ([1]; mouse, in vivo): 5 mg/kg body weight; Inhibition of bFGF binding to immobilized FRAP, in words (soluble FGFR-1 (FRAP); FIG. 8B): inhibit bFGF binding in vitro
10 | Tetrakis(4-cumyloxyphenoxy)phthalocyanine [Compound P4] |  | < 5.00 |  |  | 
